Data from US20140350092A1, “METHOD FOR […] VIRUS INFECTION” (Natura Corporation, priority 2003, published 2014).

Experiments:
Japan cedar pollen [1] = experiment: Assay of pollen enclosure (pollen rouleaux formation / pollen aggregation)
Experimental: In order to assay the actions of pectin and nucleic acid, contained in the contact preventive biological preparation of the present invention, on pollen, the following experiments were carried out. In the following experiments, by “pollen rouleaux formation” is meant a state in which a plurality of pollen particles continue linearly, and by “pollen aggregation” is meant a state in which a plurality of pollen particles constitute a bulk. Both “pollen rouleaux formation” and “pollen aggregation” denote a state in which pollen particles are captured by a medium and their free movement is inhibited, and as the degree thereof increases, the power of enclosing pollen increases.
Japan cedar pollen was put in a first water solution containing pectin (#168-00555 by Wako Pure Chemical Industries, Ltd.), in a second water solution containing glycerin, in a third water solution containing pectin and glycerin, and in a fourth water solution containing DNA (DN-JA0904, DK-JB0218 by Daiwa Fine Chemical Co. Ltd.), RNA (R6625 by Sigma), amino acid, and glycerin, and these water solutions were subjected to incubation for ten minutes at room temperature to prepare pollen developed liquids.
Each pollen developed liquid was instilled in the form of a drop onto a slide glass and was allowed to stand. After being dried, the test sample was stained by means of a ruthenium red solution and a gentian violet alcohol solution, and the assay of pollen rouleaux formation was examined microscopically.
In order to comparatively examine the actions of enclosing pollen by pectins, uronic acid-containing substances, and mucopolysaccharides according to the present invention, the following twelve kinds of samples were examined in the same way as the first exemplary embodiment. The twelve samples were: YM115-H; LM101-AS; Type DF; SLENDID type 100; SLENDID type 200; LM104AS-FS; LM-SCS; USP-H; USP-L; LH-105AS; AS Confectionary; and YM150-LJ by Genu.

[2] = after ingestion versus before ingestion; cited from earlier work
[3] = tested on: neuraminidase of the type A influenza virus; experiment: enzymatic activity of influenza-virus neuraminidase (synthetic coloring substrate); assay type: biochemical
Experimental: The activity of neuraminidase of the type A influenza virus was analyzed by an enzymic reaction with a synthetic coloring substrate (Gene Stat Flu Kit by Nichirei). This enzymic reaction is based on the power of neuraminidase to cut acetyl neuraminic, and darker solution's blue-coloring result indicates higher enzymatic activity.
A virus test body, taken from the larynx of a type A influenza infected patient, was divided into two sample pieces, i.e., a control sample and a sample used for the evaluation of the anti-enzyme activity of pectins.

[4] = tested on: basophiles in the blood of a pollenosis sufferer; experiment: emission of histamine from basophiles in the blood of a pollenosis sufferer; assay type: cell-based, human
Experimental: Blood sampling from a pollenosis sufferer was carried out, and basophiles recognized by a cell surface marker were separated by means of a magnet method. Then, the basophiles thus separated were exposed to a pollen extraction component fixed onto a micro plate, and emitted histamine was quantitatively measured by an absorbance method through a coloring reaction making use of antihistamic antibodies (HRT by Shionogi & Co., Ltd.).
A control sample making use of only a buffering solution, a sample comprising a pectin-containing buffering solution, and a nucleic acid-containing sample were prepared, and the rate of liberation of histamine with respect to the increase of allergen was comparatively examined. In the experiment, a cedar pollen extraction antigen was used as an allergen.

[5] = Application testing of eyedrop and nosedrop biological preparations on pollenosis sufferer; assay type: in vivo, human
Experimental: The contact preventive biological preparation according to the present invention was applied to eyedrop and nosedrop biological preparations and their application tests were carried out on test subjects. These eyedrop and nosedrop biological preparations according to the present exemplary embodiment contain therein pectin (type DF et cetera by Genu) and DNA (Daiwa Fine Chemical Co. Ltd.) at the following contents.
The content of pectin and the content of DNA are: pectin (0.03 to 1.0%); DNA (0.05 to 1.0%); 0.5% pectin+0.5% DNA; 0.8% pectin+0.2% DNA; and 0.2% pectin+0.8% DNA.
Pollenosis sufferers were test subjects, and the degree of improvement in itching symptom when each eyedrop biological preparation was administrated at the time of the development of an allergic reaction and its duration and application (use) feeling (the degree of uncomfortable feeling) were examined. The results thus obtained were evaluated according to the following evaluation standards.

[6] = Comparison in action with commercially available eyedrop and nosedrop biological preparations; set-up: species or system human; settings: in vivo
Source text: Conventional, commercially available eyedrop and nosedrop biological preparations against pollenosis symptoms were compared with the biological preparations according to the present invention in the action with respect to the manifestation of pollenosis symptoms.
The commercially available nosedrop biological preparations contain a vasopressor agent, an antihistamic agent, a bactericidal substance, a fragrant material et cetera.

Japan cedar pollen [7] = experiment: Assay of pollen enclosure (pollen rouleaux formation / pollen aggregation); settings: in biological preparations (artificial tears, nose spray, mouth washer) and drug solutions
[8] = tested on: pollenosis sufferer's white blood cells; experiment: in vitro cluster formation by pollenosis sufferer's white blood cells and pollen; assay type: cell-based, human; settings: pollen dispersed in 0.3% pectin water solution
Experimental: White blood cells separated from the blood of a pollenosis sufferer was subjected to incubation on a slide glass with cedar pollen fixed thereonto.

In the case of `OB(O)O` [boric acid], the “effect on pollen aggregation / dispersion” value (Japan cedar pollen [1]) is reported as “promoted the aggregation of pollen” and the pollen burst (Japan cedar pollen [1]) is reported as “causing pollen to burst”.
In the case of `N[C@@H](CCC(=O)O)C(=O)O` [glutamic acid], the “effect of additive on the pollen enclosing action of pectin” value (shortened to “effect of additive”) (Japan cedar pollen [1]) is reported as “reinforce the action of enclosing pollen by pectin”.
For `OC[C@H]1O[C@H](O[C@H]2O[C@H](CO)[C@@H](O)[C@H](O)[C@H]2O)[C@H](O)[C@@H](O)[C@@H]1O` [trehalose], the “effect of additive” value (Japan cedar pollen [1]) was “reinforced”.
For apple pectin, the “drop of concentration of histamine in the blood” value [2] is given as 24%.
For carboxymethyl cellulose, the “effect of additive” value (Japan cedar pollen [1]) was “reinforced”.
For “carrageenan [carrageenan (K-100J), reference compound]”, the pollen enclosing power (Japan cedar pollen [1]; comparison of samples, same way as first exemplary embodiment) was “less significant in pollen enclosing power than the others”.
For cluster dextrin, the “effect of additive” value (Japan cedar pollen [1]) was “reinforced”.
In the case of heparin [reference compound], the “neuraminidase enzymatic activity (blue color reaction)” value ([3]; heparin 20 unit/ml) is reported as “color exhibition of blue coloring became dull”.
In the case of methyl cellulose, the “effect of additive” value (Japan cedar pollen [1]) is reported as “reinforced”.
For pectin, the “effect of preventing the liberation of histamine” value ([4]; 0.03% pectin alone, FIG. 2) was “impossible for a 0.03% pectin-containing sample alone to provide a satisfactory effect”, the “liberation of histamine from basophiles” value ([4]; 0.03% pectin, cedar pollen extraction antigen, FIG. 1) was “inhibited over a wide range” and the “liberation of histamine from basophiles” value ([4]; pectin about 0.1% to about 0.3%, high-concentration cedar pollen) was “inhibited”. The “curative properties against the symptoms” value ([5]; eyedrop, FIG. 3, 0.5% pectin or 0.5% DNA) was “obvious curative properties against the symptoms”, the application feeling ([5]; eyedrops of a pectin concentration of 0.5% or more) was “caused a sticky feeling” and the “curative properties against pollenosis symptoms (itching and snuffles)” value ([5]; pectin from 0.03 to 1%, used alone) was “curative properties against pollenosis symptoms”. For the same compound, the “irritation / sensation on application” value [6] was “felling of drying”, the “pollen enclosing function of pectin in presence of other components” value (Japan cedar pollen [7]) was “exerted satisfactorily without any interference” and the “accumulation of white blood cells on pollen” value [8] was “no tendency to accumulate on pollen”. The “neuraminidase enzymatic activity (blue color reaction)” value ([3]; 0.05% pectin (USD-H by Genu)) was “no color reaction was observed”, the pollen rouleaux formation (Japan cedar pollen [1]; no pectin or pectin at a low concentration of less than 0.3%) was “no rouleaux capture of cedar pollen was detected” and the pollen rouleaux formation (Japan cedar pollen [1]; pectin from about 0.03 to about 3.0%) was “pollen rouleaux formation was promoted”.
